PMC6028453, “BrlR from Pseudomonas aeruginosa is a receptor for both cyclic di-GMP and pyocyanin” (Nature Communications, 2018)
Values joined by “and” are separate entries in the source; they are usually repeats but may differ in a detail not shown here. Equal entries are not always repeated.

Assays:
[1] = biological target: T1, BrlR binding to PmexA and PmexE (Pseudomonas aeruginosa, UniProt Q9HUT5); assay: EMSA, BrlR with PmexA and PmexE; format: biochemical; settings: increasing concentrations of pyocyanin
T1 construct: His6-SUMO (N, cleaved yes); made in house; host or cells: E. coli BL21 DE3
T1 sequence (Q9HUT5 whole entry): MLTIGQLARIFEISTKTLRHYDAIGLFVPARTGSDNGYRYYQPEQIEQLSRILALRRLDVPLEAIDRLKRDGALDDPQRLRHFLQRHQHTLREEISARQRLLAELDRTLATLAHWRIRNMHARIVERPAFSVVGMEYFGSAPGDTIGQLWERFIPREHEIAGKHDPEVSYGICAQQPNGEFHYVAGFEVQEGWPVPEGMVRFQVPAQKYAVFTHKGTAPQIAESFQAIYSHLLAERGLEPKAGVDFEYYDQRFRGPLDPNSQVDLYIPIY
Description: (§1) A 6-carboxy-fluorescein (FAM)-labeled 36-bp brlR promoter DNA (PbrlR) or 80-bp mexA/mexE promoter DNA (PmexA/PmexE) probes (~0.375 pmol), BrlR protein and varying amounts of inducers were incubated in binding buffer (10 mM Tris HCl [pH 7.4], 50 mM KCl, 1 mM DTT, […] and 5 ng/mL poly [dI-dC]) for 60 min at 25 °C. Finally, glycerol was added to a concentration of 6.5%. The samples were subjected to a 5% polyacrylamide gel electrophoresis and run in 0.5 × Tris-borate-EDTA buffer at 80 V for 1 h at room temperature. Imaging and data analyses were performed using a Typhoon Scanner (GE Healthcare) and Imagequant software. The probes used are listed in Supplementary Table 1.

ΔbrlR cells = assay: Planktonic antibiotic susceptibility testing, ΔbrlR; format: cell-based, Pseudomonas aeruginosa; settings: 50 μg/ml tobramycin 1 h, 0.2 mM pyocyanin
Description: To determine the role of pyocyanin in antimicrobial susceptibility, P. aeruginosa strains (Supplementary Table 2) were grown at 37 °C in 20-fold diluted LB medium supplemented with or without 0.2 mM pyocyanin, which was purified from stationary phase cultures of PAO1. Tobramycin was added to the mid-log phase (OD600 = 0.8) cells suspension to a final concentration of 50 μg/ml; after 1 h, the broth was serially diluted and spread-printed onto LB agar (medium containing 300 μg/ml carbenicillin was used for the cells harboring plasmid) to determine the cell viability via CFU counts. The cell suspensions without tobramycin were set as controls. Susceptibility is expressed as a logarithmic reduction in CFU amount. The data were analyzed with a one-tailed t-test (***P ≤ 0.001).

brlR transcription = assay: qRT-PCR of brlR transcript; format: cell-based, P. aeruginosa PAO1
Description: PAO1 WT strains were grown under different conditions. For c-di-GMP effects, overexpression of PA4843 in PAO1 (PAO1/pHERD20T-PA4843) relative to WT cells (PAO1/ pHERD20T) was determined. When P. aeruginosa strains entered mid-log phase, arabinose was added to induce gene expression. To test pyocyanin’s effect, a P. aeruginosa PAO1 WT strain cells with high pyocyanin production was determined relative to a ΔphzA1-G1/phzA2-G2 strain not producing phenazine and a ΔphzMSH strain not producing pyocyanin.
Total RNA was extracted using a MiniBEST Universal RNA Extraction Kit (TaKaRa) and cDNA synthesis was performed using a PrimeScript RT reagent Kit (TaKaRa). Primers for RT-PCR listed in Supplementary Table 1 were designed using the program PrimerExpress (Applied Biosystems). The RT-PCR reactions were performed on a CFX96 Real-Time PCR Detection System (Bio-Rad) using SYBR Premix Ex Taq™ (TaKaRa). Expression of the target genes was normalized to the expression of 16 S RNA. The relative transcript abundance was calculated according to the 2^−ΔΔCt method. Five biological replicates were performed per sample. The data were analyzed with a one-tailed t-test (***P ≤ 0.001).

BrlR Y183A DNA binding = biological target: T2, BrlR Y183A DNA binding (Pseudomonas aeruginosa, UniProt Q9HUT5, Y183A); assay: EMSA, BrlR Y183A with PbrlR; format: biochemical
T2 construct: His6-SUMO (N, cleaved yes); made in house; host or cells: E. coli BL21 DE3
T2 sequence (Q9HUT5 whole entry Y183A): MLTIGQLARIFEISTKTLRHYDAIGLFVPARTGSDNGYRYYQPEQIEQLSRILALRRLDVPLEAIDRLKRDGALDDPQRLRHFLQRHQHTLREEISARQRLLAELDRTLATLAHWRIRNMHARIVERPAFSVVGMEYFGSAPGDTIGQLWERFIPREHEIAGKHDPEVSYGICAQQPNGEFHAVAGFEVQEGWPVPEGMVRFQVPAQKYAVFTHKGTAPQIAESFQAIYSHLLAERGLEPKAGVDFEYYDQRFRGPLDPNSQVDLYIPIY
Description: (§2) It is unlikely that the larger drug molecules located in the canonical binding pocket can slide into the pyocyanin binding site and promote BrlR-DNA binding, as reflected by the EMSA results for tobramycin (Fig. 6a). To further verify the amino acid residues contributing to pyocyanin binding, many BrlR mutants were constructed. Whereas mutant E247A was insoluble, mutant F253R was not expressed, and mutant C173W was unstable. The binding affinity of Y183A and Y249A for pyocyanin were evaluated by using EMSA with a 36-bp PbrlR.
as §1

brlR [2] = tested on: brlR; parameters: method as in PMID 16879411; settings: addition of pyocyanin to P. aeruginosa PA14 strain; cited from earlier work
BrlR [3] = biological target: T3, BrlR (Pseudomonas aeruginosa, UniProt Q9HUT5); assay: Surface plasmon resonance (SPR) analysis; format: binding
T3 construct: His6-SUMO (N, cleaved yes); made in house; host or cells: E. coli BL21 DE3
T3 sequence (Q9HUT5 whole entry): as the sequence (Q9HUT5 whole entry) above
Description: The binding affinity of diverse toxic compounds for BrlR were investigated by SPR using a BIAcore-T200 apparatus (GE Healthcare). The ligand, BrlR (20 μM in 10 mM sodium acetate, pH 4.5), was immobilized on an activated CM5 sensor chip by amine coupling (BIAcore) with 4400 response units (RU), and the unreacted sites were blocked with 1.0 M ethanolamine–HCl (pH 8.5). Steady-state binding analysis was performed with injections of different molecules at different concentrations over the immobilized BrlR surface at a flow rate of 20 μL min^−1 at 25 °C. Association was measured for 180 s, followed by 120 s of dissociation in running buffer (20 mM Hepes pH 7.5, 150 mM NaCl). The sensorgrams for specific interactions were obtained by subtracting the reference unimmobilized flow cell response from that of the sample. Since BrlR only has one binding site for pyocyanin or other toxic compounds (Fig. 5a–f), the kinetic analysis of the sensorgrams from analyte interaction with the immobilized BrlR was performed by fitting the binding curves to a 1:1 binding model. To determine the steady state KD values, equilibrium responses were plotted against analyte concentrations, and the resulting curves were fitted to the steady state model in the BIAevaluation software package, version 3.0 (GE Healthcare).

[4] = biological target: Per-Arnt-Sim (PAS) domain of PA14_07500 (RmcA); parameters: method as in earlier work; settings: intrinsic fluorescence quenching method; ref 4 (Okegbe et al., 2017) of response letter; cited from earlier work
BrlR-DNA binding (PbrlR) = biological target: T4, BrlR-DNA binding (PbrlR) (Pseudomonas aeruginosa, UniProt Q9HUT5); assay: EMSA, wild-type BrlR with PbrlR DNA; format: biochemical
T4 construct: His6-SUMO (N, cleaved yes); made in house; host or cells: E. coli BL21 DE3
T4 sequence (Q9HUT5 whole entry): as above
Description: as §1

BrlR Y249A DNA binding = biological target: T5, BrlR Y249A DNA binding (Pseudomonas aeruginosa, UniProt Q9HUT5, Y249A); assay: EMSA, BrlR Y249A with PbrlR; format: biochemical
T5 construct: His6-SUMO (N, cleaved yes); made in house; host or cells: E. coli BL21 DE3
T5 sequence (Q9HUT5 whole entry Y249A): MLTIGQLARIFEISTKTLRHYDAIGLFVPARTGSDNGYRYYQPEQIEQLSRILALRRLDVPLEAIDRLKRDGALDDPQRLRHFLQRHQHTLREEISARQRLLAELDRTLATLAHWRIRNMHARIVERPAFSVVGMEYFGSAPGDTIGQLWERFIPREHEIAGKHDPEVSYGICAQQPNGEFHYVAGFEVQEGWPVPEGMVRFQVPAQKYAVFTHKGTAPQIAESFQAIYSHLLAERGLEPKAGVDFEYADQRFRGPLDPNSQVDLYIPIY
Description: as §2, §1

Cn1c2cccc(=O)c-2nc2ccccc21 [pyocyanin, 5-N-methyl-1-hydroxyphenazine]
effect on BrlR binding to PmexA and PmexE [1]: enhanced
viability of tobramycin-treated cells with vs without pyocyanin (ΔbrlR cells): no significant difference
brlR expression level, PAO1 vs ΔphzA1-G1/phzA2-G2 strain (brlR transcription; PAO1 at high pyocyanin production vs strain not producing phenazine): ~ 4.0 fold
brlR expression level, PAO1 vs ΔphzMSH strain (brlR transcription; PAO1 at high pyocyanin production vs strain with no pyocyanin production): ~ 5.3 fold
DNA bound in the presence vs absence of pyocyanin (BrlR Y183A DNA binding): 3.23 fold
up-regulation of brlR (brlR [2]): 2.3 fold
binding affinity relative to tobramycin (BrlR [3]; SPR KD 4.5 μM vs 0.64 mM): ~ 140 fold
Kd (BrlR [3]; SPR, immobilized BrlR, steady state, 25 °C): 4.52 µM and 4.5 µM
Kd [4]: 3 µM
effect of c-di-GMP and pyocyanin together on BrlR-DNA binding (BrlR-DNA binding (PbrlR); PbrlR, c-di-GMP, pyocyanin, and both): cooperatively enhance
DNA bound in the presence vs absence of pyocyanin (BrlR-DNA binding (PbrlR); wild-type BrlR, PbrlR): 5.47 fold
effect on BrlR-PbrlR DNA binding (in words) (BrlR-DNA binding (PbrlR); wild-type BrlR, increasing concentrations of compound): significant increase
DNA bound in the presence vs absence of pyocyanin (BrlR Y249A DNA binding): 4.15 fold
